A compilation of properties of binary mixtures (doi:10.1590/0104-6632.20180352s20160280)

Experiment: xn = mol fraction of the nth substance listed
Settings: 100 kPa

O + O=C[O-].OCC[NH2+]CCO
x2 = 0
Settings | viscosity [mPa·s]
293.15 K | 1
303.15 K | 0.82
333.15 K | 0.5
343.15 K | 0.451

O=C[O-].OCC[NH2+]CCO + O
viscosity [mPa·s]
Settings | x1 = 0.0292 | x1 = 0.075 | x1 = 0.1516 | x1 = 0.2184 | x1 = 0.3185 | x1 = 0.5155 | x1 = 0.5932 | x1 = 0.7378 | x1 = 0.7987 | x1 = 1
293.15 K | 1.69 | – | 8.2 | 16.1 | – | 112 | 133 | 243 | 329 | –
303.15 K | – | 2.5 | 5.9 | 11 | 23.2 | 65 | 76 | 132 | – | 242
313.15 K | 1.1 | – | 4.48 | 8 | 15.8 | 40.7 | 46.6 | 77 | 99 | 135
323.15 K | 0.93 | 1.64 | 3.51 | 6 | 11.3 | 27.1 | 30.6 | 49 | 61 | 82
333.15 K | 0.8 | 1.38 | 2.82 | 4.68 | – | 19 | 21.2 | 32.8 | – | 53
343.15 K | 0.7 | 1.18 | 2.33 | 3.75 | 6.5 | 13.9 | – | 23 | 27.8 | –
